Laboratory results from the NIST ThermoML archive (doi:10.1021/acs.jced.6b00181).

Assay: xn = mol fraction of the nth substance listed
Conditions: Liquid, Other PVT measurement

C=CC [propene] + CCCCCC
Conditions | mass density [kg/m3]
294.9 K, 1200 kPa, x1 = 0.9003 | 515.1
294.9 K, 1800 kPa, x1 = 0.9003 | 516.8
294.9 K, 2800 kPa, x1 = 0.9003 | 519
294.9 K, 3300 kPa, x1 = 0.9003 | 520.8
294.9 K, 4400 kPa, x1 = 0.9003 | 523.3
294.9 K, 10300 kPa, x1 = 0.9003 | 535.5
294.9 K, 17100 kPa, x1 = 0.9003 | 547.5
294.9 K, 24100 kPa, x1 = 0.9003 | 557.1
294.9 K, 30800 kPa, x1 = 0.9003 | 565.9
294.9 K, 37800 kPa, x1 = 0.9003 | 573.2
294.9 K, 44200 kPa, x1 = 0.9003 | 580.2
294.9 K, 51200 kPa, x1 = 0.9003 | 587.4
294.9 K, 55000 kPa, x1 = 0.9003 | 591.5
294.9 K, 58300 kPa, x1 = 0.9003 | 593.8
294.9 K, 67300 kPa, x1 = 0.9003 | 601.9
295 K, 1400 kPa, x1 = 0.606 | 568
295 K, 5200 kPa, x1 = 0.606 | 574.6
295 K, 6800 kPa, x1 = 0.606 | 577
295 K, 10300 kPa, x1 = 0.606 | 582.2
295 K, 17200 kPa, x1 = 0.606 | 592
295 K, 23900 kPa, x1 = 0.606 | 600
295 K, 30600 kPa, x1 = 0.606 | 606.9
295 K, 37500 kPa, x1 = 0.606 | 613.5
295 K, 44500 kPa, x1 = 0.606 | 619.4
295 K, 51100 kPa, x1 = 0.606 | 624.9
295 K, 57900 kPa, x1 = 0.606 | 630
295 K, 63100 kPa, x1 = 0.606 | 634.3
295 K, 66800 kPa, x1 = 0.606 | 636.7
295.3 K, 500 kPa, x1 = 0.4466 | 592.6
295.3 K, 700 kPa, x1 = 0.4466 | 594.3
295.3 K, 1400 kPa, x1 = 0.4466 | 595.1
295.3 K, 2100 kPa, x1 = 0.4466 | 596.8
295.3 K, 2800 kPa, x1 = 0.4466 | 597.6
295.3 K, 3700 kPa, x1 = 0.4466 | 598.9
295.3 K, 4800 kPa, x1 = 0.4466 | 600.6
295.3 K, 6800 kPa, x1 = 0.4466 | 603.6
295.3 K, 10200 kPa, x1 = 0.4466 | 607.9
295.3 K, 16900 kPa, x1 = 0.4466 | 615.3
295.3 K, 24100 kPa, x1 = 0.4466 | 622.5
295.3 K, 30900 kPa, x1 = 0.4466 | 629
295.3 K, 38100 kPa, x1 = 0.4466 | 634.6
295.3 K, 44500 kPa, x1 = 0.4466 | 640.3
295.3 K, 51600 kPa, x1 = 0.4466 | 646.2
295.3 K, 58300 kPa, x1 = 0.4466 | 651.1
295.3 K, 63000 kPa, x1 = 0.4466 | 654.6
295.3 K, 66500 kPa, x1 = 0.4466 | 657.1
295.6 K, 700 kPa, x1 = 0.1414 | 638.3
295.6 K, 1300 kPa, x1 = 0.1414 | 639.2
295.6 K, 1700 kPa, x1 = 0.8985 | 516.2
295.6 K, 1900 kPa, x1 = 0.8985 | 518.5
295.6 K, 2600 kPa, x1 = 0.8985 | 518.5
295.6 K, 3500 kPa, x1 = 0.1414 | 642
295.6 K, 3600 kPa, x1 = 0.8985 | 522.1
295.6 K, 4900 kPa, x1 = 0.8985 | 524.5
295.6 K, 7000 kPa, x1 = 0.8985 | 528.5
295.6 K, 8200 kPa, x1 = 0.1414 | 646.8
295.6 K, 8500 kPa, x1 = 0.8985 | 532.3
295.6 K, 10100 kPa, x1 = 0.8985 | 535.7
295.6 K, 10500 kPa, x1 = 0.8985 | 535.7
295.6 K, 10700 kPa, x1 = 0.1414 | 649.7
295.6 K, 13800 kPa, x1 = 0.8985 | 541.2
295.6 K, 14900 kPa, x1 = 0.1414 | 653.6
295.6 K, 16700 kPa, x1 = 0.8985 | 546.4
295.6 K, 17200 kPa, x1 = 0.8985 | 546.4
295.6 K, 20700 kPa, x1 = 0.1414 | 659.5
295.6 K, 23200 kPa, x1 = 0.8985 | 555.2
295.6 K, 24000 kPa, x1 = 0.1414 | 662.5
295.6 K, 27200 kPa, x1 = 0.1414 | 665.6
295.6 K, 29100 kPa, x1 = 0.8985 | 562.8
295.6 K, 30800 kPa, x1 = 0.1414 | 668.6
295.6 K, 34400 kPa, x1 = 0.8985 | 568.4
295.6 K, 37100 kPa, x1 = 0.1414 | 673.8
295.6 K, 38100 kPa, x1 = 0.8985 | 573.9
295.6 K, 41000 kPa, x1 = 0.8985 | 576.4
295.6 K, 42700 kPa, x1 = 0.1414 | 678.5
295.6 K, 44800 kPa, x1 = 0.8985 | 581.2
295.6 K, 47800 kPa, x1 = 0.1414 | 682.2
295.6 K, 48000 kPa, x1 = 0.1414 | 682.8
295.6 K, 48200 kPa, x1 = 0.1414 | 682.8
295.6 K, 48200 kPa, x1 = 0.8985 | 584.2
295.6 K, 48300 kPa, x1 = 0.1414 | 682.8
295.6 K, 51600 kPa, x1 = 0.8985 | 588
295.6 K, 52000 kPa, x1 = 0.1414 | 685.5
295.6 K, 54900 kPa, x1 = 0.8985 | 590.4
295.6 K, 55300 kPa, x1 = 0.1414 | 688.2
295.6 K, 55600 kPa, x1 = 0.1414 | 688.2
295.6 K, 58000 kPa, x1 = 0.1414 | 689.8
295.6 K, 58400 kPa, x1 = 0.8985 | 594.2
295.6 K, 61800 kPa, x1 = 0.8985 | 596.6
295.6 K, 61900 kPa, x1 = 0.1414 | 692.5
295.6 K, 66100 kPa, x1 = 0.1414 | 695.3
295.6 K, 66200 kPa, x1 = 0.1414 | 695.3
295.6 K, 67300 kPa, x1 = 0.8985 | 601.4
324.4 K, 900 kPa, x1 = 0.4466 | 560.3
324.4 K, 1400 kPa, x1 = 0.4466 | 561.7
324.4 K, 1900 kPa, x1 = 0.4466 | 562.5
324.4 K, 2100 kPa, x1 = 0.4466 | 563.2
324.4 K, 3400 kPa, x1 = 0.4466 | 565.5
324.4 K, 4900 kPa, x1 = 0.4466 | 568.9
324.4 K, 6800 kPa, x1 = 0.4466 | 571.9
324.4 K, 10200 kPa, x1 = 0.4466 | 577.8
324.4 K, 17200 kPa, x1 = 0.4466 | 588.5
324.4 K, 23800 kPa, x1 = 0.4466 | 597.6
324.4 K, 30700 kPa, x1 = 0.4466 | 606.1
324.4 K, 37800 kPa, x1 = 0.4466 | 614
324.4 K, 44700 kPa, x1 = 0.4466 | 620.3
324.4 K, 51400 kPa, x1 = 0.4466 | 626.2
324.4 K, 58300 kPa, x1 = 0.4466 | 631.8
324.4 K, 63700 kPa, x1 = 0.4466 | 636
324.4 K, 67500 kPa, x1 = 0.4466 | 638.9
324.6 K, 700 kPa, x1 = 0.1414 | 611.8
324.6 K, 1200 kPa, x1 = 0.1414 | 612.7
324.6 K, 1300 kPa, x1 = 0.606 | 533.2
324.6 K, 1800 kPa, x1 = 0.606 | 534.5
324.6 K, 1900 kPa, x1 = 0.1414 | 614
324.6 K, 2500 kPa, x1 = 0.606 | 536.2
324.6 K, 3400 kPa, x1 = 0.606 | 538.3
324.6 K, 3600 kPa, x1 = 0.1414 | 616.6
324.6 K, 5000 kPa, x1 = 0.1414 | 618.8
324.6 K, 5300 kPa, x1 = 0.606 | 542.5
324.6 K, 6800 kPa, x1 = 0.606 | 545.6
324.6 K, 7100 kPa, x1 = 0.1414 | 621.9
324.6 K, 8900 kPa, x1 = 0.1414 | 624.1
324.6 K, 9600 kPa, x1 = 0.1414 | 625.5
324.6 K, 10300 kPa, x1 = 0.1414 | 625.9
324.6 K, 10300 kPa, x1 = 0.606 | 552.4
324.6 K, 12300 kPa, x1 = 0.1414 | 628.6
324.6 K, 13600 kPa, x1 = 0.1414 | 630
324.6 K, 17100 kPa, x1 = 0.1414 | 634.1
324.6 K, 17400 kPa, x1 = 0.606 | 564.6
324.6 K, 19700 kPa, x1 = 0.1414 | 637.3
324.6 K, 23900 kPa, x1 = 0.606 | 573.8
324.6 K, 24100 kPa, x1 = 0.1414 | 642
324.6 K, 27400 kPa, x1 = 0.1414 | 644.9
324.6 K, 30700 kPa, x1 = 0.1414 | 648.2
324.6 K, 30700 kPa, x1 = 0.606 | 583.4
324.6 K, 34300 kPa, x1 = 0.1414 | 651.6
324.6 K, 37500 kPa, x1 = 0.1414 | 654.6
324.6 K, 37900 kPa, x1 = 0.606 | 592.4
324.6 K, 44300 kPa, x1 = 0.1414 | 660.5
324.6 K, 44400 kPa, x1 = 0.606 | 599.1
324.6 K, 47800 kPa, x1 = 0.1414 | 663.5
324.6 K, 51300 kPa, x1 = 0.1414 | 666.6
324.6 K, 51400 kPa, x1 = 0.606 | 606.4
324.6 K, 55200 kPa, x1 = 0.1414 | 669.7
324.6 K, 58100 kPa, x1 = 0.606 | 612.2
324.6 K, 58400 kPa, x1 = 0.1414 | 672.2
324.6 K, 62700 kPa, x1 = 0.1414 | 675.4
324.6 K, 63000 kPa, x1 = 0.606 | 616.2
324.6 K, 66500 kPa, x1 = 0.1414 | 678.5
324.6 K, 67200 kPa, x1 = 0.606 | 619.4
325.1 K, 2100 kPa, x1 = 0.9003 | 470.3
325.1 K, 2800 kPa, x1 = 0.9003 | 473.5
325.1 K, 3700 kPa, x1 = 0.9003 | 476.8
325.1 K, 7000 kPa, x1 = 0.9003 | 489.5
325.1 K, 10400 kPa, x1 = 0.9003 | 499.8
325.1 K, 16500 kPa, x1 = 0.9003 | 515.1
325.1 K, 24000 kPa, x1 = 0.9003 | 530.6
325.1 K, 30900 kPa, x1 = 0.9003 | 542.4
325.1 K, 37500 kPa, x1 = 0.9003 | 551.5
325.1 K, 44500 kPa, x1 = 0.9003 | 559.6
325.1 K, 51500 kPa, x1 = 0.9003 | 567.6
325.1 K, 58300 kPa, x1 = 0.9003 | 574.5
325.1 K, 63700 kPa, x1 = 0.9003 | 580.2
325.1 K, 67200 kPa, x1 = 0.9003 | 583.3
325.5 K, 2400 kPa, x1 = 0.8985 | 471.9
325.5 K, 2800 kPa, x1 = 0.8985 | 474.2
325.5 K, 3500 kPa, x1 = 0.8985 | 476.7
325.5 K, 4700 kPa, x1 = 0.8985 | 481.2
